In PubChem BioAssay (NCI):
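Values below derive from 48-hour exposures of cells grown in 96-well plates, with endpoints linearly interpolated between the two concentrations bracketing the appropriate inhibition level. TGI: concentration producing complete growth inhibition.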

Legend:
Assay in all cases: DTP human tumour cell line panel, 48 h
RPMI-8226 leukemia = test system: RPMI-8226 leukemia
ACHN renal = test system: ACHN renal
SR leukemia = test system: SR leukemia
M14 melanoma = test system: M14 melanoma
TK-10 renal = test system: TK-10 renal
SF-268 CNS = test system: SF-268 CNS
SNB-75 CNS = test system: SNB-75 CNS
COLO 205 colon = test system: COLO 205 colon
HOP-62 NSCLC = test system: HOP-62 NSCLC
SK-MEL-28 melanoma = test system: SK-MEL-28 melanoma

Row | SMILES | TGI (RPMI-8226 leukemia) [µM] | TGI (ACHN renal) [µM] | TGI (SR leukemia) [µM] | TGI (M14 melanoma) [µM] | TGI (TK-10 renal) [µM] | TGI (SF-268 CNS) [µM] | TGI (SNB-75 CNS) [µM] | TGI (COLO 205 colon) [µM] | TGI (HOP-62 NSCLC) [µM] | TGI (SK-MEL-28 melanoma) [µM]
1 | CSc1ncc2c(n1)-c1ccccc1OC2N1CCOCC1 (stereo not given) | > 100 | > 100 | > 100 | > 100 | > 100 | > 100 | > 100 | > 100 |  | 
2 | COc1ccc2c(c1)Oc1cc(O)ccc1[C@H]2c1ccccc1C(=O)NC(C)c1ccccc1 (stereo not given in full) | 23.6 | 29.8 |  | 26.1 | 50.4 | 45.8 | 35 | 31.3 | 44.6 | 34.7
3 | CC(C)=CC1C(C(=O)Oc2ccccc2C(C)C)C1(C)C (stereo not given) | 48.2 | 33 | 61.7 | > 100 | 96 | > 100 | 62 |  | 85.5 | > 100
4 | c1coc(-c2nccc3c2[nH]c2ccccc23)c1 |  | > 100 | > 100 | > 100 | > 100 | > 100 |  | 33.5 | > 100 | > 100
5 | CN1CCN(C(=O)CCC(=O)Nc2cc3c(c4ccccc24)-c2ccc4ccccc4c2C3)CC1 |  | 3.78 |  | 2.97 | 3.27 | 3.57 |  | 3 | 3.15 | 3.26
6 | COc1ccc(-n2c(SC(CN3CCOCC3)CN3CCCC3=O)nc3ccccc3c2=O)cc1 (stereo not given) | > 100 | > 100 | > 100 | > 100 | > 100 | > 100 | > 100 | > 100 |  | > 100
7 | O=C1c2ccccc2C(=O)N1n1c(Cc2ccc(Cl)cc2)n[nH]c1=O |  | > 100 | > 100 | > 100 | > 100 |  | > 100 | > 100 | > 100 | > 100
8 | C/C(=N\Nc1nc2cc(Cl)ccc2s1)c1ccccn1 | > 32.4 | 13.4 | > 100 |  | > 100 | 34.1 | 31.3 | > 60.4 | 11.1 | > 27.5
9 | Cn1cnc(N2CCCC2)c(C#N)c1=S | > 100 | > 100 | > 100 | > 100 | > 100 | > 100 |  | > 100 | > 100 | > 100
10 | COC(=O)[C@H](CC(C)C)NC(=O)[C@H](Cc1ccccc1)N1CC2C=CC1C2 (stereo not given in full) | 79.2 | > 100 |  | > 100 | > 100 | > 100 | > 100 | > 100 | > 100 | > 100
11 | O=C(Cc1nc2ccc(C(=O)c3ccccc3)cc2[nH]c1=O)C(=O)Nc1nc2ccccc2[nH]1 |  | > 100 | > 100 | > 100 | > 100 | > 100 | > 100 | > 100 | > 100 | > 100
12 | Nn1c(Nc2ccc(S(N)(=O)=O)cc2)nnc(/C=C/c2c(O)ccc3ccccc23)c1=O | 26.7 | > 100 | 25.1 | 69.8 |  | > 100 |  | 88.1 | 56.7 | 53.5
13 | COC1=C[C@]2(CCC(=O)O2)[C@@H]2Cc3ccccc3[C@H](O)[C@@H]2C1=O | 38.5 | > 100 | 41.4 | > 100 | > 100 | > 100 |  | > 100 | > 100 | > 100
14 | O=c1cc(-c2ccccc2)[nH]c2ncccc12 | > 100 | > 100 |  | > 100 | > 100 | > 100 |  |  | > 100 | > 100
15 | COc1cc(C2c3cc4c(cc3OC(NNc3ccccc3)C2C)OCO4)cc(OC)c1OC (stereo not given) | 31.8 | 27.5 |  | 22.7 | 31.8 | 38.1 | > 62.7 | 10.3 | 10.4 | > 100
16 | COC1OCC(O)C(NC(=O)N(C)N=O)C1O (stereo not given) | > 100 |  |  |  |  | > 100 | > 100 | > 100 | > 100 | > 100
17 | Clc1cc(-c2ccccc2)nc(Nc2nc3ccccc3[nH]2)n1 | > 100 | 33.3 | 10.5 | 63 | > 100 | 80.9 | > 100 | 51 |  | 
18 | O=C(c1ccccc1)N1CCN(C(=S)NC2CCCCC2)C1=S |  | 58 | 88.7 | 31.3 | 62 | 42.5 | 31.6 | 34 | 37.3 | 31.2
